Assay results taken from the supplement of paper PMC10307832.

Key:
Assay in all cases: relative viability (nuclei count vs DMSO), 5 days (fraction); higher = more cells survive
Axitinib + Dasatinib = compound: CNC(=O)c1ccccc1Sc1ccc2c(/C=C/c3ccccn3)n[nH]c2c1 [Axitinib] + Cc1nc(Nc2ncc(C(=O)Nc3c(C)cccc3Cl)s2)cc(N2CCN(CCO)CC2)n1 [Dasatinib] (partner 0.075 µM)
Outline: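 The day after seeding in 1536-well plates, lung cancer cell lines were treated by pin tool with a single drug, or with a fixed anchor-drug dose together with five library-drug doses (not always all listed) in √10 steps. After 5 days, a combined fix-and-stain solution (final 0.05% Triton X-100, 1% formaldehyde, 1 ug/ml Hoechst) was added. Nuclei counted on 4× images gave relative viability as treated counts over vehicle counts, reported as the median of duplicate plates.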

Pifithrin_alpha = compound: CC1=CC=C(C=C1)C(=O)CN2C3=C(CCCC3)SC2=N [Pifithrin_alpha]
Outline: (§1)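 For viability, nuclei in each treated well were divided by nuclei in vehicle wells and the median across plates was taken. Lung cancer cell lines in 1536-well plates were pinned with five library-drug doses (not always all listed) spaced by √10, cultured 5 days without medium change, and imaged at 4× after Hoechst staining, with plates passing only at control CV below 25% and at least one doubling.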

Bemcentinib = compound: Nc1nc(Nc2ccc3c(c2)CC[C@@H](N2CCCC2)CC3)nn1-c1cc2c(nn1)-c1ccccc1CCC2 [Bemcentinib]
Outline: as §1

Axitinib = compound: CNC(=O)c1ccccc1Sc1ccc2c(/C=C/c3ccccn3)n[nH]c2c1 [Axitinib]
Outline: as §1

Cell Line: NCI-H1993
- relative viability (Axitinib + Dasatinib; first compound 0.005 µM): 0.609
- relative viability (Axitinib + Dasatinib; first compound 0.01581 µM): 0.708
- relative viability (Axitinib + Dasatinib; first compound 0.05 µM): 0.735
- relative viability (Axitinib + Dasatinib; first compound 0.1581 µM): 0.712
- relative viability (Axitinib + Dasatinib; first compound 0.5 µM): 0.52
- relative viability (Pifithrin_alpha; 1 µM): 0.693
- relative viability (Pifithrin_alpha; 3.162 µM): 0.764
- relative viability (Pifithrin_alpha; 10 µM): 0.743
- relative viability (Pifithrin_alpha; 31.62 µM): 0.658
- relative viability (Pifithrin_alpha; 100 µM): 0.775
- relative viability (Bemcentinib; 0.04 µM): 0.911
- relative viability (Bemcentinib; 0.1265 µM): 0.927
- relative viability (Bemcentinib; 0.4 µM): 1.22
- relative viability (Bemcentinib; 1.265 µM): 0.921
- relative viability (Bemcentinib; 4 µM): 0.994
- relative viability (Axitinib; 0.005 µM): 1.05
- relative viability (Axitinib; 0.01581 µM): 0.892
- relative viability (Axitinib; 0.05 µM): 0.909
- relative viability (Axitinib; 0.1581 µM): 0.94
- relative viability (Axitinib; 0.5 µM): 0.864

Cell Line: NCI-H2009
- relative viability (Axitinib + Dasatinib; first compound 0.005 µM): 0.303
- relative viability (Axitinib + Dasatinib; first compound 0.01581 µM): 0.35
- relative viability (Axitinib + Dasatinib; first compound 0.05 µM): 0.355
- relative viability (Axitinib + Dasatinib; first compound 0.1581 µM): 0.301
- relative viability (Axitinib + Dasatinib; first compound 0.5 µM): 0.413
- relative viability (Pifithrin_alpha; 1 µM): 0.96
- relative viability (Pifithrin_alpha; 3.162 µM): 1.01
- relative viability (Pifithrin_alpha; 10 µM): 0.974
- relative viability (Pifithrin_alpha; 31.62 µM): 0.65
- relative viability (Pifithrin_alpha; 100 µM): 0.878
- relative viability (Bemcentinib; 0.04 µM): 1.02
- relative viability (Bemcentinib; 0.1265 µM): 1.04
- relative viability (Bemcentinib; 0.4 µM): 1.04
- relative viability (Bemcentinib; 1.265 µM): 1.03
- relative viability (Bemcentinib; 4 µM): 1.05
- relative viability (Axitinib; 0.005 µM): 1.01
- relative viability (Axitinib; 0.01581 µM): 1
- relative viability (Axitinib; 0.05 µM): 1.05
- relative viability (Axitinib; 0.1581 µM): 1.06
- relative viability (Axitinib; 0.5 µM): 1.09

Cell Line: NCI-H2023
- relative viability (Axitinib + Dasatinib; first compound 0.005 µM): 0.537
- relative viability (Axitinib + Dasatinib; first compound 0.01581 µM): 0.525
- relative viability (Axitinib + Dasatinib; first compound 0.05 µM): 0.701
- relative viability (Axitinib + Dasatinib; first compound 0.1581 µM): 0.515
- relative viability (Axitinib + Dasatinib; first compound 0.5 µM): 0.621
- relative viability (Pifithrin_alpha; 1 µM): 0.924
- relative viability (Pifithrin_alpha; 3.162 µM): 0.846
- relative viability (Pifithrin_alpha; 10 µM): 0.902
- relative viability (Pifithrin_alpha; 31.62 µM): 0.461
- relative viability (Pifithrin_alpha; 100 µM): 0.686
- relative viability (Bemcentinib; 0.04 µM): 0.975
- relative viability (Bemcentinib; 0.1265 µM): 1.08
- relative viability (Bemcentinib; 0.4 µM): 1.14
- relative viability (Bemcentinib; 1.265 µM): 1.08
- relative viability (Bemcentinib; 4 µM): 1.13
- relative viability (Axitinib; 0.005 µM): 0.984
- relative viability (Axitinib; 0.01581 µM): 0.972
- relative viability (Axitinib; 0.05 µM): 0.945
- relative viability (Axitinib; 0.1581 µM): 0.936
- relative viability (Axitinib; 0.5 µM): 1.13

Cell Line: NCI-H2085
- relative viability (Axitinib + Dasatinib; first compound 0.005 µM): 0.237
- relative viability (Axitinib + Dasatinib; first compound 0.01581 µM): 0.22
- relative viability (Axitinib + Dasatinib; first compound 0.05 µM): 0.216
- relative viability (Axitinib + Dasatinib; first compound 0.1581 µM): 0.247
- relative viability (Axitinib + Dasatinib; first compound 0.5 µM): 0.199
- relative viability (Pifithrin_alpha; 1 µM): 0.892
- relative viability (Pifithrin_alpha; 3.162 µM): 0.973
- relative viability (Pifithrin_alpha; 10 µM): 0.947
- relative viability (Pifithrin_alpha; 31.62 µM): 0.897
- relative viability (Pifithrin_alpha; 100 µM): 0.959
- relative viability (Bemcentinib; 0.04 µM): 0.964
- relative viability (Bemcentinib; 0.1265 µM): 1.03
- relative viability (Bemcentinib; 0.4 µM): 0.994
- relative viability (Bemcentinib; 1.265 µM): 1.02
- relative viability (Bemcentinib; 4 µM): 0.993
- relative viability (Axitinib; 0.005 µM): 1.02
- relative viability (Axitinib; 0.01581 µM): 1.05
- relative viability (Axitinib; 0.05 µM): 1.03
- relative viability (Axitinib; 0.1581 µM): 0.998
- relative viability (Axitinib; 0.5 µM): 0.998

Cell Line: NCI-H2087
- relative viability (Axitinib + Dasatinib; first compound 0.005 µM): 0.852
- relative viability (Axitinib + Dasatinib; first compound 0.01581 µM): 1.01
- relative viability (Axitinib + Dasatinib; first compound 0.05 µM): 0.908
- relative viability (Axitinib + Dasatinib; first compound 0.1581 µM): 0.837
- relative viability (Axitinib + Dasatinib; first compound 0.5 µM): 0.861
- relative viability (Pifithrin_alpha; 1 µM): 0.932
- relative viability (Pifithrin_alpha; 3.162 µM): 1.13
- relative viability (Pifithrin_alpha; 10 µM): 1.02
- relative viability (Pifithrin_alpha; 31.62 µM): 0.63
- relative viability (Pifithrin_alpha; 100 µM): 0.958
- relative viability (Bemcentinib; 0.04 µM): 1.12
- relative viability (Bemcentinib; 0.1265 µM): 1.2
- relative viability (Bemcentinib; 0.4 µM): 1.07
- relative viability (Bemcentinib; 1.265 µM): 0.969
- relative viability (Bemcentinib; 4 µM): 1.03
- relative viability (Axitinib; 0.005 µM): 0.939
- relative viability (Axitinib; 0.01581 µM): 1.09
- relative viability (Axitinib; 0.05 µM): 0.996
- relative viability (Axitinib; 0.1581 µM): 1.02
- relative viability (Axitinib; 0.5 µM): 0.986

Cell Line: NCI-H2126
- relative viability (Axitinib + Dasatinib; first compound 0.005 µM): 0.625
- relative viability (Axitinib + Dasatinib; first compound 0.01581 µM): 0.635
- relative viability (Axitinib + Dasatinib; first compound 0.05 µM): 0.64
- relative viability (Axitinib + Dasatinib; first compound 0.1581 µM): 0.565
- relative viability (Axitinib + Dasatinib; first compound 0.5 µM): 0.578
- relative viability (Pifithrin_alpha; 1 µM): 0.638
- relative viability (Pifithrin_alpha; 3.162 µM): 0.862
- relative viability (Pifithrin_alpha; 10 µM): 0.884
- relative viability (Pifithrin_alpha; 31.62 µM): 0.85
- relative viability (Pifithrin_alpha; 100 µM): 0.822
- relative viability (Bemcentinib; 0.04 µM): 1
- relative viability (Bemcentinib; 0.1265 µM): 1.03
- relative viability (Bemcentinib; 0.4 µM): 1.03
- relative viability (Bemcentinib; 1.265 µM): 1.04
- relative viability (Bemcentinib; 4 µM): 1.11
- relative viability (Axitinib; 0.005 µM): 0.979
- relative viability (Axitinib; 0.01581 µM): 0.991
- relative viability (Axitinib; 0.05 µM): 0.993
- relative viability (Axitinib; 0.1581 µM): 1
- relative viability (Axitinib; 0.5 µM): 0.953

Cell Line: NCI-H2170
- relative viability (Axitinib + Dasatinib; first compound 0.005 µM): 0.606
- relative viability (Axitinib + Dasatinib; first compound 0.01581 µM): 0.579
- relative viability (Axitinib + Dasatinib; first compound 0.05 µM): 0.64
- relative viability (Axitinib + Dasatinib; first compound 0.1581 µM): 0.582
- relative viability (Axitinib + Dasatinib; first compound 0.5 µM): 0.522
- relative viability (Pifithrin_alpha; 1 µM): 0.989
- relative viability (Pifithrin_alpha; 3.162 µM): 1.04
- relative viability (Pifithrin_alpha; 10 µM): 0.875
- relative viability (Pifithrin_alpha; 31.62 µM): 0.948
- relative viability (Pifithrin_alpha; 100 µM): 0.962
- relative viability (Bemcentinib; 0.04 µM): 1.09
- relative viability (Bemcentinib; 0.1265 µM): 1.09
- relative viability (Bemcentinib; 0.4 µM): 0.991
- relative viability (Bemcentinib; 1.265 µM): 0.999
- relative viability (Bemcentinib; 4 µM): 0.899
- relative viability (Axitinib; 0.005 µM): 1.1
- relative viability (Axitinib; 0.01581 µM): 0.975
- relative viability (Axitinib; 0.05 µM): 1.01
- relative viability (Axitinib; 0.1581 µM): 0.974
- relative viability (Axitinib; 0.5 µM): 1

Cell Line: NCI-H2228
- relative viability (Axitinib + Dasatinib; first compound 0.005 µM): 0.471
- relative viability (Axitinib + Dasatinib; first compound 0.01581 µM): 0.616
- relative viability (Axitinib + Dasatinib; first compound 0.05 µM): 0.558
- relative viability (Axitinib + Dasatinib; first compound 0.1581 µM): 0.476
- relative viability (Axitinib + Dasatinib; first compound 0.5 µM): 0.697
- relative viability (Pifithrin_alpha; 1 µM): 0.99
- relative viability (Pifithrin_alpha; 3.162 µM): 1.03
- relative viability (Pifithrin_alpha; 10 µM): 0.97
- relative viability (Pifithrin_alpha; 31.62 µM): 0.93
- relative viability (Pifithrin_alpha; 100 µM): 1.05
- relative viability (Bemcentinib; 0.04 µM): 0.8
- relative viability (Bemcentinib; 0.1265 µM): 1.13
- relative viability (Bemcentinib; 0.4 µM): 1.05
- relative viability (Bemcentinib; 1.265 µM): 0.96
- relative viability (Bemcentinib; 4 µM): 1.22
- relative viability (Axitinib; 0.005 µM): 1.09
- relative viability (Axitinib; 0.01581 µM): 0.943
- relative viability (Axitinib; 0.05 µM): 1.05
- relative viability (Axitinib; 0.1581 µM): 1.05
- relative viability (Axitinib; 0.5 µM): 1.03

Cell Line: NCI-H2342
- relative viability (Axitinib + Dasatinib; first compound 0.005 µM): 0.311
- relative viability (Axitinib + Dasatinib; first compound 0.01581 µM): 0.325
- relative viability (Axitinib + Dasatinib; first compound 0.05 µM): 0.347
- relative viability (Axitinib + Dasatinib; first compound 0.1581 µM): 0.349
- relative viability (Axitinib + Dasatinib; first compound 0.5 µM): 0.297
- relative viability (Pifithrin_alpha; 1 µM): 0.916
- relative viability (Pifithrin_alpha; 3.162 µM): 0.928
- relative viability (Pifithrin_alpha; 10 µM): 0.884
- relative viability (Pifithrin_alpha; 31.62 µM): 0.976
- relative viability (Pifithrin_alpha; 100 µM): 0.929
- relative viability (Bemcentinib; 0.04 µM): 0.949
- relative viability (Bemcentinib; 0.1265 µM): 1.06
- relative viability (Bemcentinib; 0.4 µM): 1.01
- relative viability (Bemcentinib; 1.265 µM): 0.932
- relative viability (Bemcentinib; 4 µM): 1.01
- relative viability (Axitinib; 0.005 µM): 0.975
- relative viability (Axitinib; 0.01581 µM): 1.14
- relative viability (Axitinib; 0.05 µM): 1.01
- relative viability (Axitinib; 0.1581 µM): 1.09
- relative viability (Axitinib; 0.5 µM): 0.775

Cell Line: NCI-H2347
- relative viability (Axitinib + Dasatinib; first compound 0.005 µM): 0.304
- relative viability (Axitinib + Dasatinib; first compound 0.01581 µM): 0.324
- relative viability (Axitinib + Dasatinib; first compound 0.05 µM): 0.288
- relative viability (Axitinib + Dasatinib; first compound 0.1581 µM): 0.308
- relative viability (Axitinib + Dasatinib; first compound 0.5 µM): 0.323
- relative viability (Pifithrin_alpha; 1 µM): 0.954
- relative viability (Pifithrin_alpha; 3.162 µM): 1.03
- relative viability (Pifithrin_alpha; 10 µM): 1.07
- relative viability (Pifithrin_alpha; 31.62 µM): 0.744
- relative viability (Pifithrin_alpha; 100 µM): 1.03
- relative viability (Bemcentinib; 0.04 µM): 0.953
- relative viability (Bemcentinib; 0.1265 µM): 1.17
- relative viability (Bemcentinib; 0.4 µM): 1.06
- relative viability (Bemcentinib; 1.265 µM): 0.956
- relative viability (Bemcentinib; 4 µM): 1.04
- relative viability (Axitinib; 0.005 µM): 0.983
- relative viability (Axitinib; 0.01581 µM): 0.959
- relative viability (Axitinib; 0.05 µM): 1.09
- relative viability (Axitinib; 0.1581 µM): 1.06
- relative viability (Axitinib; 0.5 µM): 0.951
